Reference: patent US20250361230A1, “LATS Inhibitors and Uses Thereof” (The USA, as Represented by the Secretary, Dept. of Heath …, priority 2022, published 2025)

Legend:
[1] = biological target: T1, AKT Kinase-NanoLuc fusion in HEK-293 cells (Homo sapiens, UniProt P31749); experiment: NanoBRET target engagement assay in transfected HEK-293 cells, AKT; type: cell-based; details: cellular; read-out: AKT (Cellular) IC50
T1 construct: host or cells: HEK-293
Summary of the method: (§1)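 HEK-293 cells transiently transfected with kinase-NanoLuc fusion plasmid for 22-24 h, then incubated with compound and NanoBRET tracer for 1 hour at 37° C. After substrate plus extracellular NanoLuc inhibitor addition, 460 and 600 nm emissions read; no-tracer-corrected BRET ratio used to derive IC50 values.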

[2] = biological target: T2, LATS1 Kinase-NanoLuc fusion in HEK-293 cells (Homo sapiens, UniProt O95835); experiment: NanoBRET target engagement assay in transfected HEK-293 cells, LATS1; type: cell-based; details: cellular
T2 construct: host or cells: HEK-293
T2 sequence (O95835 1-1130): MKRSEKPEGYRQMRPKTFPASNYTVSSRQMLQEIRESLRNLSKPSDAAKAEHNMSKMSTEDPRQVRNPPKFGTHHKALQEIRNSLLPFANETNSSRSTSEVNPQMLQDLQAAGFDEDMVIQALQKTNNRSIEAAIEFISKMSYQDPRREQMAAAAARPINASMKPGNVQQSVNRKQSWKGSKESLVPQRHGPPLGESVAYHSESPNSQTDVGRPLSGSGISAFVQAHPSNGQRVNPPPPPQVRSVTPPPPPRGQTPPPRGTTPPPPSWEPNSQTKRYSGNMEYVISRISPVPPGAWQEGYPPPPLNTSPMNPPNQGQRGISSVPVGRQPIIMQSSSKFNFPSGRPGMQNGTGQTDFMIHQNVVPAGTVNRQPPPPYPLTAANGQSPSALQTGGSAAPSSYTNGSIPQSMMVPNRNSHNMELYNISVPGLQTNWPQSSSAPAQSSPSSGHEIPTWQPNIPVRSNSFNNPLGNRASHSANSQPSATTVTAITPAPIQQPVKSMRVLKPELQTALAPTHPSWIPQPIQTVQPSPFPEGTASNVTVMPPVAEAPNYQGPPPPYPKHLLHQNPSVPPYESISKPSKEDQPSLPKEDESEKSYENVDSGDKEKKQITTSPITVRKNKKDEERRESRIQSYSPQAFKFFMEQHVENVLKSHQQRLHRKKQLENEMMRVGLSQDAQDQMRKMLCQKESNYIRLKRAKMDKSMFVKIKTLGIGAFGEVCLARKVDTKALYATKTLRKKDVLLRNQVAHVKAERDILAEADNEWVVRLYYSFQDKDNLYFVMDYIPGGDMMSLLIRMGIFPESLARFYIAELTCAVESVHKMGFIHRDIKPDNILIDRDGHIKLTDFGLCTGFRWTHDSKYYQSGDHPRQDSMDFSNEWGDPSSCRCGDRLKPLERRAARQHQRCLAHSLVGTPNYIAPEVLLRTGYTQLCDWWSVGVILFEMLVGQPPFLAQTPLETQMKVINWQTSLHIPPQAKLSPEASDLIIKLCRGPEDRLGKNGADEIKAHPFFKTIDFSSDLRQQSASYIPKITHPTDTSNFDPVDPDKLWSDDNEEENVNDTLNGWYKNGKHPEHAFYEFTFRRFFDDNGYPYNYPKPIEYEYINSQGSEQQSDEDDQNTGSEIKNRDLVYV
Summary of the method: as §1

T1 sequence (P31749 whole entry, the tested form may be a part): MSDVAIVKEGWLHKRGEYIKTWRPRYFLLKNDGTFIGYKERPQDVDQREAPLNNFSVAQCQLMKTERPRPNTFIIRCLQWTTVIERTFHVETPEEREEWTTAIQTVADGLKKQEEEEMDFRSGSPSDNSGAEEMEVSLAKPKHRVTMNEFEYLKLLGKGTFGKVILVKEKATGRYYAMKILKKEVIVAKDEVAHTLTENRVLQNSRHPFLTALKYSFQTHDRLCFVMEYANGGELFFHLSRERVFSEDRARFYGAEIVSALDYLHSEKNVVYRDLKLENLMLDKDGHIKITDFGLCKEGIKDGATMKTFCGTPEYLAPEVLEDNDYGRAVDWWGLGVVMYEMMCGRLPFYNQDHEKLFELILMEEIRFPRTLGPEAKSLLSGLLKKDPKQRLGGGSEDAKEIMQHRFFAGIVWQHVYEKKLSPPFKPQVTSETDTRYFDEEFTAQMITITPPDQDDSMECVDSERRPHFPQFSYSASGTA

IC50 [1]: 28.5 µM | IC50 [2]: 15 nM
SMILES: Cc1cc(-c2ccnc3[nH]cc(C#N)c23)ccc1[C@@]1(O)[C@H](C)CN(C2CCS(=O)(=O)CC2)C[C@@H]1C [Compound 2003, 4-(4-((3S,4s,5R)-1-(1,1-dioxidotetrahydro-2H-thiopyran-4-yl)-4-hydroxy-3,5-dimethylpiperidin-4-yl)-3-methylphenyl)-1H-pyrrolo[2,3-b]pyridine-3-carbonitrile]
